Where a SMILES comes first, the peptide text is derived from it. [ ]: non-standard residue; d: D form. The star is where a group is joined. βGlc = OC[C@H]1O[C@@H](*)[C@H](O)[C@@H](O)[C@@H]1O; Nva = CCC[C@H](N)C(=O)O
Legend:
Format in all cases: cell-based
[1] = biological target: T1, PAC1 (Homo sapiens, UniProt P41586); assay: Assay of peptides at PAC and VPAC receptors: PAC1 (EC50/EMax)
T1 sequence (P41586 21-468): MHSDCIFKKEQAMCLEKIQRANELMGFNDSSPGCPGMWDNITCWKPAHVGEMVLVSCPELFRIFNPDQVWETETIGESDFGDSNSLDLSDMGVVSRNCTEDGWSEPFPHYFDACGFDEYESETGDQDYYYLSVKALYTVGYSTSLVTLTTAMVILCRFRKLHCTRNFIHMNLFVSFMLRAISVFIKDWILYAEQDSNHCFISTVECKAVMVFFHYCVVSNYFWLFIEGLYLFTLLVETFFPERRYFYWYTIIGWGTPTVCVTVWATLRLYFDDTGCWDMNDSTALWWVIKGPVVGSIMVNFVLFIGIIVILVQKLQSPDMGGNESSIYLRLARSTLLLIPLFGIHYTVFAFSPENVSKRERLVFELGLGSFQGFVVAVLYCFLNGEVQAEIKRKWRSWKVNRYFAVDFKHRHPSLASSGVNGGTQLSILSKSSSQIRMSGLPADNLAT

[2] = biological target: T2, VPAC1 (Homo sapiens, UniProt P32241); assay: Assay of peptides at PAC and VPAC receptors: VPAC1 (EC50/EMax)
T2 sequence (P32241 31-457): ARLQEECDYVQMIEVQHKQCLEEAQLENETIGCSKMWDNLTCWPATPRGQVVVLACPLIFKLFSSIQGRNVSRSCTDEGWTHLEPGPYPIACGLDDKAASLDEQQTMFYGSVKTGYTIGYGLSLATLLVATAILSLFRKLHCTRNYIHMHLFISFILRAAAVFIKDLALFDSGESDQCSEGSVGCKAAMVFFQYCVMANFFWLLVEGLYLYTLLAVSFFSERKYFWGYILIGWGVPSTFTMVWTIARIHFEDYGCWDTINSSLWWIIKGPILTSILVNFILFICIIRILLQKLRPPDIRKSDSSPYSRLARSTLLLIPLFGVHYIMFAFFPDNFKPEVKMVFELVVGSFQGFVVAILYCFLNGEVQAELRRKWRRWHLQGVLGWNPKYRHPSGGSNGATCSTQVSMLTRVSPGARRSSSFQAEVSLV

[3] = biological target: T3, VPAC2 (Homo sapiens, UniProt P41587); assay: Assay of peptides at PAC and VPAC receptors: VPAC2 (EC50/EMax)
T3 sequence (P41587 24-438): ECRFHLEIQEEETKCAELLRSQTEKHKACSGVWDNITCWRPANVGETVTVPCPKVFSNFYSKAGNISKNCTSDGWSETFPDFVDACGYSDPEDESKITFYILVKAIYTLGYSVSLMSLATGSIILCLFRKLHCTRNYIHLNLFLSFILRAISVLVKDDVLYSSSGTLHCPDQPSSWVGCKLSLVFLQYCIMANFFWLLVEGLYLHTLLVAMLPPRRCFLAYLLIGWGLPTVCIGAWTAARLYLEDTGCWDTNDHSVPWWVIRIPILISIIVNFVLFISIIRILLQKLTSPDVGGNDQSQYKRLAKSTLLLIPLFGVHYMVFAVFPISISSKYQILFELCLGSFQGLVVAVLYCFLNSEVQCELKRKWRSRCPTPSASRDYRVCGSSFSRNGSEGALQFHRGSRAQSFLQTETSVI

Row | Compound | EC50 [1] [nM] | PAC1 EMax [1] [%] | EC50 [2] [nM] | VPAC1 EMax [2] [%] | EC50 [3] [nM] | VPAC2 EMax [3] [%] | Emax [1] [%] | Emax [2] [%] | Emax [3] [%]
1 | HSDGIFTDSYSRYRKQLAVd8KKYLAAVd8L-Ser(Lact) [2ls98Lact] | 0.72 | 93 | 0.45 | 101 | 193 | 100 |  |  | 
2 | CCC[C@H](NC(=O)[C@H](CCC(N)=O)NC(=O)[C@H](CCCCN)NC(=O)[C@H](CCCNC(=N)N)NC(=O)[C@H](Cc1ccc(O)cc1)NC(=O)[C@H](CCCNC(=N)N)NC(=O)[C@H](CO)NC(=O)[C@H](Cc1ccc(O)cc1)NC(=O)[C@H](CO)NC(=O)[C@H](CC(=O)O)NC(=O)[C@@H](NC(=O)[C@H](Cc1ccccc1)NC(=O)[C@@H](NC(=O)CNC(=O)[C@H](CC(=O)O)NC(=O)[C@@H](CO)NC(=O)[C@@H](N)Cc1c[nH]cn1)[C@@H](C)CC)[C@@H](C)O)C(=O)N[C@@H](C)C(=O)N[C@H](C(=O)N[C@@H](CCCCN)C(=O)N[C@@H](CCCCN)C(=O)N[C@@H](Cc1ccc(O)cc1)C(=O)N[C@@H](CC(C)C)C(=O)N[C@@H](C)C(=O)N[C@@H](C)C(=O)N[C@@H](CC(C)C)C(=O)N[C@@H](CO[C@@H]1O[C@H](CO)[C@@H](O)[C@H](O)[C@H]1O)C(=O)N[C@@H](CC(C)C)C(N)=O)C(C)C [CRA3002] (H-H[dS]DGIFTDSYSRYRKQ[Nva]AVKKYLAALS(βGlc)L-NH2) |  |  |  |  |  |  | -79 | 93 | -95
3 | CCC[C@H](NC(=O)[C@H](CCC(N)=O)NC(=O)[C@H](CCCCN)NC(=O)[C@H](CCCNC(=N)N)NC(=O)[C@H](Cc1ccc(O)cc1)NC(=O)[C@H](CCCNC(=N)N)NC(=O)[C@H](CO)NC(=O)[C@H](Cc1ccc(O)cc1)NC(=O)[C@H](CO)NC(=O)[C@H](CC(=O)O)NC(=O)[C@H](C)NC(=O)[C@H](Cc1ccccc1)NC(=O)[C@@H](NC(=O)CNC(=O)[C@H](CC(=O)O)NC(=O)[C@@H](CO)NC(=O)[C@@H](N)Cc1c[nH]cn1)[C@@H](C)CC)C(=O)N[C@@H](C)C(=O)N[C@H](C(=O)N[C@@H](CCCCN)C(=O)N[C@@H](CCCCN)C(=O)N[C@@H](Cc1ccc(O)cc1)C(=O)N[C@@H](CC(C)C)C(=O)N[C@@H](C)C(=O)N[C@@H](C)C(=O)N[C@H](C(=O)N[C@@H](CO[C@@H]1O[C@H](CO)[C@@H](O)[C@H](O)[C@H]1O)C(N)=O)C(C)C)C(C)C [CRA3004] (H-H[dS]DGIFADSYSRYRKQ[Nva]AVKKYLAAVS(βGlc)-NH2) |  |  | 1370 |  |  |  |  | 85 | 
4 | CCC[C@H](NC(=O)[C@H](CCC(N)=O)NC(=O)[C@H](CCCCN)NC(=O)[C@H](CCCNC(=N)N)NC(=O)[C@H](Cc1ccc(O)cc1)NC(=O)[C@H](CCCNC(=N)N)NC(=O)[C@H](CO)NC(=O)[C@H](Cc1ccc(O)cc1)NC(=O)[C@H](CO)NC(=O)[C@H](CC(=O)O)NC(=O)[C@H](C)NC(=O)[C@H](Cc1ccccc1)NC(=O)[C@@H](NC(=O)CNC(=O)[C@H](CC(=O)O)NC(=O)[C@@H](CO)NC(=O)[C@@H](N)Cc1c[nH]cn1)[C@@H](C)CC)C(=O)N[C@@H](C)C(=O)N[C@H](C(=O)N[C@@H](CCCCN)C(=O)N[C@@H](CCCCN)C(=O)N[C@@H](Cc1ccc(O)cc1)C(=O)N[C@@H](CC(C)C)C(=O)N[C@@H](C)C(=O)N[C@@H](C)C(=O)N[C@H](C(=O)N[C@@H](CO[C@@H]1O[C@H](CO)[C@@H](O)[C@H](O)[C@H]1O)C(=O)N[C@@H](CC(C)C)C(N)=O)C(C)C)C(C)C [CRA3005] (H-H[dS]DGIFADSYSRYRKQ[Nva]AVKKYLAAVS(βGlc)L-NH2) |  |  |  |  |  |  |  | 78 | 
5 | HSDGIFTDSYSRYRKQLAVKKYLAAVd8L-Ser(Cell) [2ls98Cell] | 0.84 | 92 | 0.52 | 93 | 55.6 | 91 |  |  | 
